Reference: ChEMBL document CHEMBL4017483, “Potent and selective oxytocin receptor agonists without disulfide bridges” (Bioorg Med Chem Lett, 2017)
Bridge positions count the residues as written; N and C are the ends. Square brackets hold non-standard residues; d marks the D form. Peptide text beside a SMILES is read from it. βAla = NCCC(=O)O; Mpa = O=C(O)CCS

What was measured:
[1] = biological target: T1, Oxytocin receptor (Homo sapiens, UniProt P30559); assay: Agonist activity at human OTR expressed in CHO cells assessed as calcium mobilization measured after 30 mins by Fluo-4-AM dye based FLIPR assay; type: functional, cell-based
T1 sequence (P30559 whole entry): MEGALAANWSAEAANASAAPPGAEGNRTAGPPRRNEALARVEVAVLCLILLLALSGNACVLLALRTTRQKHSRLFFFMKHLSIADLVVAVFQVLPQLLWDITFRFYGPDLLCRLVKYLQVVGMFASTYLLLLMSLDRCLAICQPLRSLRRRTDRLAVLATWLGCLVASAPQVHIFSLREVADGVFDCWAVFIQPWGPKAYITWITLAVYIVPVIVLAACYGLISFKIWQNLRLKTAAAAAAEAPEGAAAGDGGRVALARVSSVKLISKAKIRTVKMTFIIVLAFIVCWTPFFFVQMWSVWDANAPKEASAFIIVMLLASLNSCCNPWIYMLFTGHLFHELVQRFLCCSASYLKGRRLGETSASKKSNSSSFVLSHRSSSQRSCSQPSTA

[2] = biological target: Vasopressin V1a receptor (Homo sapiens, UniProt P37288); assay: Agonist activity at human V1a receptor expressed in CHO cells assessed as calcium mobilization measured after 30 mins by Fluo-4-AM dye based FLIPR assay; type: cell-based
Vasopressin V1a receptor, sequence (P37288 whole entry): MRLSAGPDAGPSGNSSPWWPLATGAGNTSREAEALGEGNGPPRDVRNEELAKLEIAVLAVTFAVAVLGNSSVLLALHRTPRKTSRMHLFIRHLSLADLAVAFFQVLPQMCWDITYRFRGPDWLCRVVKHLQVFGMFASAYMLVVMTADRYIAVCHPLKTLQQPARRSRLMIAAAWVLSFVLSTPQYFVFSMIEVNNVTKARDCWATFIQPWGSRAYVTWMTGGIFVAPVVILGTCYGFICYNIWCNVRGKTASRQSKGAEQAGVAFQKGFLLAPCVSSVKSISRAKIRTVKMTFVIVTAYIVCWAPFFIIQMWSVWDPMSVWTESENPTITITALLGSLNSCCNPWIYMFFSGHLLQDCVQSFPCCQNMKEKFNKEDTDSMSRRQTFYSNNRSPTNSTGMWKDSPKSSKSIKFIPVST

[3] = biological target: T2, Vasopressin V1b receptor (Homo sapiens, UniProt P47901); assay: Agonist activity at human V1b receptor expressed in CHO cells assessed as calcium mobilization measured after 30 mins by Fluo-4-AM dye based FLIPR assay; type: cell-based
T2 sequence (P47901 whole entry): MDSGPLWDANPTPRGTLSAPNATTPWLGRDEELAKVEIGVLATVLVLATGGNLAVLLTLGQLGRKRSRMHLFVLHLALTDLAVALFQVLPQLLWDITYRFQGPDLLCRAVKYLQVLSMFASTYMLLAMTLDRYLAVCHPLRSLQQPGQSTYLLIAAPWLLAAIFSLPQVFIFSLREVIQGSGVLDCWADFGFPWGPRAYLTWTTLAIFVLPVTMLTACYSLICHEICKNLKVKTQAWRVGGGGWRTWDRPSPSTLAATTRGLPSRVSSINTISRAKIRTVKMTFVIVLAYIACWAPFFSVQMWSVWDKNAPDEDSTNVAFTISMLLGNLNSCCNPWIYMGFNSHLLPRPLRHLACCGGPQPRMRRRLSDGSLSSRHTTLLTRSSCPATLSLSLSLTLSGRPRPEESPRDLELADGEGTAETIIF

[4] = species on record: Homo sapiens; assay: Selectivity ratio of EC50 for human V1a receptor to EC50 for human OTR
[5] = species on record: Homo sapiens; assay: Selectivity ratio of EC50 for human V1b receptor to EC50 for human OTR

Structure (SMILES) | EC50 [1] | EC50 [2] | EC50 [3] | Ratio EC50 [4] | Ratio EC50 [5]
CC(C)C[C@H](NC(=O)[C@@H]1CCCN1C(=O)[C@@H]1CSSCCC(=O)N[C@@H](Cc2ccc(O)cc2)C(=O)N[C@@H](CO)C(=O)N[C@@H](CCC(N)=O)C(=O)N[C@@H](CC(N)=O)C(=O)N1)C(=O)NCC(N)=O ([Mpa]YSQNCPLG-NH2; disulfide 1-6) | 40 nM | > 100 nM | > 100 nM | > 2 | > 2
CC[C@H](C)[C@@H]1NC(=O)[C@H](Cc2ccc(O)cc2)NC(=O)CCNC(=O)C[C@@H](C(=O)N2CCC[C@H]2C(=O)N[C@@H](CC(C)C)C(=O)NCC(N)=O)NC(=O)[C@H](CC(N)=O)NC(=O)[C@H](CCC(N)=O)NC1=O ([βAla]YIQNDPLG-NH2; lactam N-6) | 13 nM | > 100 nM | > 100 nM | > 7.7 | > 7.7
